Laboratory results taken from patent US8183206B2, “Drugs comprising combination of antithrombotic agent with pyrazolone derivative” (Mitsubishi Tanabe Pharma Corporation, priority 2001, dated 2012).

Legend:
[1] = test system: patients diagnosed as cerebral infarction; test: Function prognosis by modified ranking scale in cerebral infarction patients (Example 2); type: in vivo, human; conditions: on leaving hospital within 1 month after start of administration
Procedure: Administration amount and method are shown below.
Sodium ozagrel: 80 mg of sodium ozagrel was dissolved in an adequate amount of an electrolyte solution or carbohydrate solution and the resulting solution was intravenously administered constantly for 2 weeks, twice daily, that is, in the morning and evening, each over 2 hours.
(§1) Argatroban: For the first two days, 60 mg/120 ml of argatroban was diluted with an adequate amount of a transfusion fluid and the resulting solution was intravenously infused constantly over 24 hours. For the following 5 days, 10 mg/20 ml of argatroban was diluted with an adequate amount of a transfusion fluid and the resulting solution was intravenously infused twice daily, that is, in the morning and evening, each over 3 hours.
Sodium ozagrel+edaravone: 80 mg of sodium ozagrel was dissolved in an adequate amount of an electrolyte solution or carbohydrate solution and the resulting solution was intravenously administered constantly for 2 weeks, twice daily, that is, in the morning and evening, each over 2 hours. At the same time, 30 mg/20 ml of edaravone was diluted with an adequate amount of physiological saline and the resulting solution was intravenously infused for 2 weeks, twice daily, that is, in the morning and evening, each over 20 minutes.
as §1, with “Argatroban+edaravone: For” for “Argatroban: For”, “3 hours; and at the same time, 30 mg/20 ml of edaravone was diluted with an adequate amount of physiological saline and the resulting solution was intravenously infused for 2 weeks twice daily, that is, in the morning and evening, each over 30 minutes.” for “3 hours.”
In the above-described table, what the meaning of grade will be explained briefly. Grade 0: no symptoms, Grade 1: some symptoms but non-significant disability (able to carry out all daily activities and affairs), Grade 2: slight disability (unable to carry out all previous activities but able to look after own affairs without assistance), Grade 3: moderate disability (requiring some help, but able to walk without assistance), Grade 4: relatively severe disability (requiring assistance for walk or daily activities), Grade 5: very severe disability (bedridden, incontinence and requiring constant nursing care and attention), Grade 6: death.

Wistar rat = test: Influence of t-PA on the bleeding time (tail transection, anesthetized rats); type: in vivo; conditions: for Bleeding time: urethane anesthesia, t-PA 1 mg/kg constant i.v. infusion, edaravone 3 mg/kg i.v. 5 min before tail transection, average ± S.E., measured up to 30 min
Procedure: Via a cannula inserted into the femoral vein of each Wistar rat anesthetized with urethane (1.2 g/kg, i.p.), 1 mg/kg (1 mg=580000 IU; 4 mL/kg, 1 mL/hr) of physiological saline or t-PA was constantly infused. Fifty five minutes after the constant fusion was started, 3 mg of edaravone (3-methyl-1-phenyl-2-pyrazolin-5-one) or physiological saline was administered intravenously. Five minutes after that, the tail was transected at 2 mm from its tip immediately by using a razor. Every 15 seconds, the blood from the tail was blotted with a filter paper and the time until bleeding ceased was measured for up to 30 minutes.

[2] = test system: patients in the acute stage of cerebral infarction; test: Comparative Example: edaravone alone, modified ranking scale, patients in the acute stage of cerebral infarction; type: in vivo, human; conditions: edaravone used alone, within three months, from cited data
Procedure: Evaluation results of edaravone, when administered alone, in accordance with the modified ranking scale are included in Therapeutic Research, Vol. 19(4), 1333-1345, 1998.
Evaluation method and results: Edaravone (30 mg/20 ml) diluted with 100 ml of physiological saline was intravenously infused to 8 patients in the acute stage of cerebral infarction constantly for 14 days twice daily (morning and evening), each over 30 minutes. During the administration term of this medicament, administration of another medicament which might have an influence on the drug efficacy evaluation was avoided. Evaluation was made in accordance with the modified ranking scale three months after the initiation of the administration or upon discharge of the patient from the hospital within three months after the initiation of administration.

[3] = test system: patients in the acute stage of cerebral infarction; conditions: edaravone 30 mg i.v. twice daily for 14 days; evaluated three months after initiation or upon discharge within three months; cited from earlier work

Row | Compound | Number of patients in Grade 0 (no symptoms), modified ranking scale [1] | Number of patients in Grade 1 (some symptoms but non-significant disability), modified ranking scale [1] | Number of patients in Grade 2 (slight disability), modified ranking scale [1] | Number of patients in Grade 3 (moderate disability), modified ranking scale [1] | Number of patients in Grade 4 (relatively severe disability), modified ranking scale [1] | Number of patients in Grade 5 (very severe disability), modified ranking scale [1] | Number of patients in Grade 6 (death), modified ranking scale [1] | Influence on bleeding time compared with the control group (physiological saline) (Wistar rat; t-PA 1 mg/kg, result in words) | Bleeding time (Wistar rat) [min] | Ratio of Grade 0 [2] [%] | Number of patients in Grade 0, modified ranking scale [3] | Number of patients in Grade 1 (some symptoms but non-significant disability), modified ranking scale [3] | Number of patients in Grade 2 (slight disability), modified ranking scale [3] | Number of patients in Grade 3, modified ranking scale [3] | Number of patients in Grade 4 (relatively severe disability), modified ranking scale [3] | Number of patients in Grade 5, modified ranking scale [3] | Number of patients in Grade 6, modified ranking scale [3]
1 | CC1CNc2c(cccc2S(=O)(=O)N[C@@H](CCCNC(=N)N)C(=O)N2CC[C@@H](C)C[C@@H]2C(=O)O)C1 (mixture of isomers) [NOV, (2R, 4R)4-methyl-1-[N^2-((RS)-3-methyl-1,2,3,4-tetrahydro-8-quinolinesulfonyl)-L-arginyl]-2-piperidinecarboxylic acid monohydrate] | 1 | 1 | 2 | 1 | 0 | 3 | 0 | – | – | – | – | – | – | – | – | – | –
2 | O=C([O-])/C=C/c1ccc(Cn2ccnc2)cc1.[Na+] [OZA] | 5 | 2 | 1 | 1 | 0 | 0 | 0 | – | – | – | – | – | – | – | – | – | –
3 | t-PA: tissue plasminogen activator, thrombolytic agent; GRTPA (Mitsubishi Pharma Corporation) can be used | – | – | – | – | – | – | – | prolonged the bleeding time significantly | 17.70 ± 2.85 | – | – | – | – | – | – | – | –
4 | CC1=NN(c2ccccc2)C(=O)C1 [Edaravone, 3-methyl-1-phenyl-2-pyrazolin-5-one] | – | – | – | – | – | – | – | – | 11.55 ± 2.31 | 0 | 0 | 2 | 3 | 0 | 3 | 0 | 0
